Source: PubChem BioAssay (NCI)
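Growth conditions: 96-well plates. Treatment: test compound, 48 hours, 5 concentrations. Analysis: linear interpolation between bracketing concentrations; unreached endpoints set to highest concentration. The concentration for 50% growth inhibition is given as GI50. TGI: concentration producing complete growth inhibition.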

Assays:
Experiment in all cases: inhibition of tumour cell growth, NCI panel, 48 h
[1] = tested on: SNB-75 CNS
[2] = tested on: A549 NSCLC
[3] = tested on: CCRF-CEM leukemia
[4] = tested on: SK-OV-3 ovarian
[5] = tested on: MDA-MB-231 breast
[6] = tested on: 786-0 renal
[7] = tested on: SF-539 CNS
[8] = tested on: NCI/ADR-RES ovarian
[9] = tested on: IGROV1 ovarian
[10] = tested on: A498 renal
[11] = tested on: MDA-MB-468 breast
[12] = tested on: OVCAR-8 ovarian
[13] = tested on: EKVX NSCLC
[14] = tested on: MALME-3M melanoma
[15] = tested on: NCI-H23 lung
[16] = tested on: HCC-2998 colon
[17] = tested on: UACC-257 melanoma
[18] = tested on: M14 melanoma
[19] = tested on: CAKI-1 renal
[20] = tested on: SNB-19 CNS
[21] = tested on: T-47D breast
[22] = tested on: HCT-15 colon
[23] = tested on: OVCAR-4 ovarian
[24] = tested on: HCT-116 colon
[25] = tested on: NCI-H460 lung
[26] = tested on: OVCAR-5 ovarian
[27] = tested on: PC-3 prostate
[28] = tested on: HT29 colon
[29] = tested on: TK-10 renal
[30] = tested on: HOP-92 NSCLC
[31] = tested on: SN12C renal
[32] = tested on: K-562 leukemia
[33] = tested on: KM12 colon
[34] = tested on: COLO 205 colon
[35] = tested on: MCF7 breast
[36] = tested on: MDA-MB-435
[37] = tested on: U251 CNS
[38] = tested on: ACHN renal
[39] = tested on: SF-295 CNS
[40] = tested on: HL-60(TB) leukemia
[41] = tested on: SK-MEL-2 melanoma
[42] = tested on: SW-620 colon
[43] = tested on: BT-549 breast
[44] = tested on: NCI-H522 lung
[45] = tested on: SF-268 CNS
[46] = tested on: DU-145 prostate
[47] = tested on: OVCAR-3 ovarian
[48] = tested on: NCI-H226 lung
[49] = tested on: HOP-62 NSCLC
[50] = tested on: UACC-62 melanoma
[51] = tested on: SR leukemia
[52] = tested on: SK-MEL-5 melanoma
[53] = tested on: HS 578T breast
[54] = tested on: LOX IMVI melanoma
[55] = tested on: MOLT-4 leukemia
[56] = tested on: RPMI-8226 leukemia
[57] = tested on: SK-MEL-28 melanoma
[58] = tested on: UO-31 renal

COc1cc(/C=C/C(=O)c2ccccc2)ccc1Oc1nc(Nc2ccc(F)cc2)nc(N(C)C)n1
GI50 [1]: 4.7 µM
TGI [1]: 95.9 µM
GI50 [2]: 11.7 µM
TGI [2]: > 100 µM
GI50 [3]: 3.38 µM
TGI [3]: > 100 µM
GI50 [4]: 48.6 µM
TGI [4]: > 100 µM
GI50 [5]: 6.92 µM
TGI [5]: 21.9 µM
GI50 [6]: 20.5 µM
TGI [6]: 87 µM
GI50 [7]: 13.8 µM
TGI [7]: 26.7 µM
GI50 [8]: 7.04 µM
TGI [8]: 22.6 µM
GI50 [9]: 18.7 µM
TGI [9]: > 100 µM
GI50 [10]: 27 µM
TGI [10]: > 100 µM
GI50 [11]: 3.21 µM
TGI [11]: 19.9 µM
GI50 [12]: 5.9 µM
TGI [12]: 26.5 µM
GI50 [13]: 4.73 µM
TGI [13]: > 100 µM
GI50 [14]: 15.9 µM
TGI [14]: 39.6 µM
GI50 [15]: 12.6 µM
TGI [15]: 51.4 µM
GI50 [16]: 12.9 µM
TGI [16]: 76.5 µM
GI50 [17]: 6.44 µM
TGI [17]: 77.2 µM
GI50 [18]: 13 µM
TGI [18]: 37.8 µM
GI50 [19]: 5.72 µM
TGI [19]: > 100 µM
GI50 [20]: 10.2 µM
TGI [20]: 27.6 µM
GI50 [21]: 3.36 µM
TGI [21]: > 100 µM
GI50 [22]: 3.31 µM
TGI [22]: 12.9 µM
GI50 [23]: 5.85 µM
TGI [23]: 41.7 µM
GI50 [24]: 3.21 µM
TGI [24]: 12.9 µM
GI50 [25]: 9.14 µM
TGI [25]: 30 µM
GI50 [26]: 13.9 µM
TGI [26]: 48.3 µM
GI50 [27]: 10 µM
TGI [27]: > 100 µM
GI50 [28]: 4.36 µM
TGI [28]: 19 µM
GI50 [29]: 18 µM
TGI [29]: > 100 µM
GI50 [30]: 2.08 µM
TGI [30]: 12.9 µM
GI50 [31]: 7.32 µM
TGI [31]: 22.1 µM
GI50 [32]: 3.57 µM
TGI [32]: > 100 µM
GI50 [33]: 14.9 µM
TGI [33]: > 100 µM
GI50 [34]: 15.1 µM
TGI [34]: > 100 µM
GI50 [35]: 3.08 µM
TGI [35]: 15 µM
GI50 [36]: 7.39 µM
TGI [36]: 28.4 µM
GI50 [37]: 2.84 µM
TGI [37]: 13.4 µM
GI50 [38]: 8.29 µM
TGI [38]: 37.4 µM
GI50 [39]: 6.89 µM
TGI [39]: 48.5 µM
GI50 [40]: 8.38 µM
TGI [40]: 67.1 µM
GI50 [41]: 4.68 µM
TGI [41]: 20.7 µM
GI50 [42]: 1.81 µM
TGI [42]: 3.97 µM
GI50 [43]: 12 µM
TGI [43]: 28.6 µM
GI50 [44]: 5.15 µM
TGI [44]: 59.2 µM
GI50 [45]: 12.2 µM
TGI [45]: > 100 µM
GI50 [46]: 27.3 µM
TGI [46]: > 100 µM
GI50 [47]: 11.8 µM
TGI [47]: > 100 µM
GI50 [48]: 4.94 µM
TGI [48]: 21.5 µM
GI50 [49]: 26.6 µM
TGI [49]: > 100 µM
GI50 [50]: 4.99 µM
TGI [50]: 24.2 µM
GI50 [51]: 2.9 µM
TGI [51]: > 100 µM
GI50 [52]: 6.21 µM
TGI [52]: 34.2 µM
GI50 [53]: 5.44 µM
TGI [53]: 56.4 µM
GI50 [54]: 1.6 µM
TGI [54]: 3.15 µM
GI50 [55]: 2.56 µM
TGI [55]: > 100 µM
GI50 [56]: 2.83 µM
TGI [56]: 33.9 µM
GI50 [57]: 12.2 µM
TGI [57]: 32.1 µM
GI50 [58]: 4.4 µM
TGI [58]: > 100 µM
